Measured values published in US20040229942A1, “Analeptic and antidepressant combinations” (Cephalon Inc, priority 2003, published 2004).

Experiments:
cats = cats (Lin et al., 1992); cited from earlier work
rats = rats (Touret et al., 1995; Edgar and Seidel, 1997); cited from earlier work
canines = canines (Shelton et al., 1995); cited from earlier work
[1] = system: patients previously diagnosed with MDD (single episode or recurrent); assay: Clinical study: modafinil started together with an SSRI (fluoxetine or paroxetine) in MDD patients, depressive symptom assessment (HAMD-21, HAMD-31, response, remission); conditions: human, in vivo
Procedure: Eligible patients were previously diagnosed with MDD (single episode or recurrent), […] had significant fatigue (Fatigue Severity Scale [FSS] score of greater than or equal to 4), and had not taken antidepressant therapy for greater than or equal to 4 weeks. Patients were evaluated at screening, baseline (shown in Table 1), and weeks 1, 2, 3, 4, 5, and 6.
Patients were then started on a combination of an SSRI and modafinil.
Modafinil was initiated at 100 mg/day for 3 days and then titrated to 200 mg/day, depending on response and tolerability. SSRI therapy was either fluoxetine or paroxetine administered at 20 mg/day for 6 weeks.
Depressive symptom changes were analyzed using HAMD-31, each of which were videotaped and rated independently, and HAMD-21 total score evaluations. HAMD-21 total score analyses were also performed to evaluate response and remission rates. Changes in fatigue were assessed using the FSS. A fatigue response was defined as an FSS score of less than 4 at any post-baseline visit. […] Subjective sleepiness was assessed using the Epworth Sleepiness Scale (ESS). […] Symptoms associated with depression, including fatigue, mood, motivation, and concentration, were evaluated using patient-assessed Visual Analogue Scales (VAS).
Continuous variables were analyzed using a paired t-test for normally distributed data or Wilcoxon signed rank test for non-normal data. […]

non-human primates = non-human primates (Hernant et al, 1991); cited from earlier work
[2] = system: major depressive disorder; conditions: at 6 weeks; cited from earlier work

Structure (SMILES) | wakefulness (cats) | wakefulness (rats) | wakefulness (canines) | overall conclusion on adjuvant effect in patients with depression and significant fatigue [1] | wakefulness (non-human primates) | response to antidepressant therapy [2]
NC(=O)C[S+]([O-])C(c1ccccc1)c1ccccc1 (stereo not drawn) [Modafinil, 2-(benzhydrylsulfinyl) acetamide] | promotes wakefulness | promotes wakefulness | promotes wakefulness | rapid-acting and effective adjuvant medication | promotes wakefulness | 
CNCCC(Oc1ccc(C(F)(F)F)cc1)c1ccccc1 (stereo not drawn) [fluoxetine] |  |  |  |  |  | about 50%
